Assay results from patent publication US11981658B2, “Substituted aminopyridine compounds as EGFR inhibitors” (YUHAN CORPORATION, priority 2021, dated 2024).
Like-named read-outs stand apart in the source and are kept apart here.

How the values were obtained:
[1] = biological target: EGFR L858R/T790M/C797S (Homo sapiens, UniProt P00533, C797S/L858R/T790M); assay: Biochemical EGFR kinase inhibition assay (Lance Ultra TR-FRET), triple mutant L858R/T790M/C797S
Method in brief: (§1)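 Kinase activity is measured by TR-FRET phosphopeptide detection. Compounds span 0.003 μM to 10 μM; the 1 h reaction at room temperature is quenched with EDTA, then labelled antibody (2 nM) is incubated 60 min before reading.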

[2] = biological target: EGFR L858R/C797S (Homo sapiens, UniProt P00533, C797S/L858R); assay: Biochemical EGFR kinase inhibition assay (Lance Ultra TR-FRET), double mutant L858R/C797S
Method in brief: as §1

[3] = biological target: EGFR Del19/C797S (Homo sapiens, UniProt P00533, C797S/DEL746-750); assay: Biochemical EGFR kinase inhibition assay (Lance Ultra TR-FRET), double mutant del19/C797S
Method in brief: as §1

[4] = biological target: EGFR wildtype (WT) (Homo sapiens, UniProt P00533); assay: Biochemical EGFR kinase inhibition assay (Lance Ultra TR-FRET), wildtype
Method in brief: as §1

[5] = biological target: EGFR Del19/T790M/C797S (Homo sapiens, UniProt P00533, C797S/DEL746-750/T790M); assay: Biochemical EGFR kinase inhibition assay (Lance Ultra TR-FRET), triple mutant del19/T790M/C797S
Method in brief: as §1

[6] = IC50 L858R/T790M/C797S (nM), 100 μM ATP
[7] = Km ATP, read-out: IC50 L858R/T790M/C797S (nM), Km ATP
[8] = IC50 L858R/C797S (nM), 100 μM ATP
[9] = Km ATP, read-out: IC50 L858R/C797S (nM), Km ATP
[10] = IC50 Del19/C797S (nM), 100 μM ATP
[11] = Km ATP, read-out: IC50 Del19/C797S (nM), Km ATP
[12] = Km ATP, read-out: IC50 WT (nM), Km ATP
[13] = IC50 Del19/T790M/C797S (nM), 100 μM ATP
[14] = Km ATP, read-out: IC50 Del19/T790M/C797S (nM), Km ATP

EGFR Del19/T790M/C797S, sequence (P00533 with tags, fused parts or gaps DEL746-750/T790M/C797S): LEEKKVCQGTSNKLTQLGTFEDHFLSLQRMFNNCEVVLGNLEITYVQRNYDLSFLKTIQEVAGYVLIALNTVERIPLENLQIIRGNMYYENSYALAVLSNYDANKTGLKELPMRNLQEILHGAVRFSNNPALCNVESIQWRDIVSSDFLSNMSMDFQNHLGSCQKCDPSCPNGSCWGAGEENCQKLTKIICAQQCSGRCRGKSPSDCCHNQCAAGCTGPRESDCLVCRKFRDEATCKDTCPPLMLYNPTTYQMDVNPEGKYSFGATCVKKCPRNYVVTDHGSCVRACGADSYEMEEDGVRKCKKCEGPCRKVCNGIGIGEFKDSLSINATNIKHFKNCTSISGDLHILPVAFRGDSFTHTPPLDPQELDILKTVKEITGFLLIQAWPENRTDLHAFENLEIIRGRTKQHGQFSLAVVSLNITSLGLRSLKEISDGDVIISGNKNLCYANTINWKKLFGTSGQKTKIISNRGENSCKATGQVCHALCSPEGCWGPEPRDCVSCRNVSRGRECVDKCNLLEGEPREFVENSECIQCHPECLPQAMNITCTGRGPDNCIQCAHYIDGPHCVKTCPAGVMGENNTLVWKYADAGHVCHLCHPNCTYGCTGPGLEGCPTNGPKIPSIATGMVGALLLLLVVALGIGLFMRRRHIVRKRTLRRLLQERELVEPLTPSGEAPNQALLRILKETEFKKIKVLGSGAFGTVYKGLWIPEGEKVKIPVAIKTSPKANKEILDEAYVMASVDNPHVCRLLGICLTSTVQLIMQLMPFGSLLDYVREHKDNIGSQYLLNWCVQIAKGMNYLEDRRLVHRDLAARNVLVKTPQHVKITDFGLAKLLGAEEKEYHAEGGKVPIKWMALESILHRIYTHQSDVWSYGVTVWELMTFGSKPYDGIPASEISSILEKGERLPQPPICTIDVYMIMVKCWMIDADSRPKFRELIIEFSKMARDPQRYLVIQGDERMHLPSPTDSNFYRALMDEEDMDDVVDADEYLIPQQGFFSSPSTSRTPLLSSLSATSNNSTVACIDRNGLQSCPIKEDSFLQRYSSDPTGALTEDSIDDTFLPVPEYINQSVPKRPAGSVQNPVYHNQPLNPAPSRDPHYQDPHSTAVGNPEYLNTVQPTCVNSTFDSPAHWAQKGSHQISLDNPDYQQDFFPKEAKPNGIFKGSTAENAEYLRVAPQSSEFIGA
EGFR L858R/T790M/C797S, sequence (P00533 25-1210 T790M/C797S/L858R): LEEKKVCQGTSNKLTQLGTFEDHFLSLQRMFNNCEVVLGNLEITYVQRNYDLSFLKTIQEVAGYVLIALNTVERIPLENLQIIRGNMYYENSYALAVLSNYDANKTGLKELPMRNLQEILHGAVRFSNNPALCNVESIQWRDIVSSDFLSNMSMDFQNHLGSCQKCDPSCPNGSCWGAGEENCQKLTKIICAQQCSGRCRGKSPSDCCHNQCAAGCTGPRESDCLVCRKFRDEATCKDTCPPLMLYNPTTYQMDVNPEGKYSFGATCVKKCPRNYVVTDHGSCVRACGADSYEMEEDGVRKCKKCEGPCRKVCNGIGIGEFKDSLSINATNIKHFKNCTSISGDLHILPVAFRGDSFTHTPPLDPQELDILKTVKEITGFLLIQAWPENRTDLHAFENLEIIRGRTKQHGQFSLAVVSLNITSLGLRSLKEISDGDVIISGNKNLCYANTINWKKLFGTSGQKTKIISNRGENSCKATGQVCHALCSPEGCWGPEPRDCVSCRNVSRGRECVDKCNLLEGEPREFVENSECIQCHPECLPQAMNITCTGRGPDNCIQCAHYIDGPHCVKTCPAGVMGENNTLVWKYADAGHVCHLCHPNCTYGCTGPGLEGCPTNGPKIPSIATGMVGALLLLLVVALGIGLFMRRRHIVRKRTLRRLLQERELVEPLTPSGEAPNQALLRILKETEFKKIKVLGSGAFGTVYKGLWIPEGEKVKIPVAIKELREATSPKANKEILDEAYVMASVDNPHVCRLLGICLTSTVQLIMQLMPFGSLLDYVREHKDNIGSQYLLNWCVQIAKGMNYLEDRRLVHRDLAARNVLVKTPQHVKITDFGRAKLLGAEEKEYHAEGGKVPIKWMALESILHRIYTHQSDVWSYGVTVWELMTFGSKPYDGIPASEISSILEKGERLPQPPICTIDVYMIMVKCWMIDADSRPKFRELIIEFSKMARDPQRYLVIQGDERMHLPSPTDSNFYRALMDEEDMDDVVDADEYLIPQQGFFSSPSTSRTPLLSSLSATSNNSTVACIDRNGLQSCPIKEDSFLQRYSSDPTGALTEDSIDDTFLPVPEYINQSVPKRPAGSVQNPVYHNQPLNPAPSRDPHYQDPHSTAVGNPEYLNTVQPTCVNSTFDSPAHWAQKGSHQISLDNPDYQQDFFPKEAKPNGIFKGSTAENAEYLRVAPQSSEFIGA
EGFR Del19/C797S, sequence (P00533 with tags, fused parts or gaps DEL746-750/C797S): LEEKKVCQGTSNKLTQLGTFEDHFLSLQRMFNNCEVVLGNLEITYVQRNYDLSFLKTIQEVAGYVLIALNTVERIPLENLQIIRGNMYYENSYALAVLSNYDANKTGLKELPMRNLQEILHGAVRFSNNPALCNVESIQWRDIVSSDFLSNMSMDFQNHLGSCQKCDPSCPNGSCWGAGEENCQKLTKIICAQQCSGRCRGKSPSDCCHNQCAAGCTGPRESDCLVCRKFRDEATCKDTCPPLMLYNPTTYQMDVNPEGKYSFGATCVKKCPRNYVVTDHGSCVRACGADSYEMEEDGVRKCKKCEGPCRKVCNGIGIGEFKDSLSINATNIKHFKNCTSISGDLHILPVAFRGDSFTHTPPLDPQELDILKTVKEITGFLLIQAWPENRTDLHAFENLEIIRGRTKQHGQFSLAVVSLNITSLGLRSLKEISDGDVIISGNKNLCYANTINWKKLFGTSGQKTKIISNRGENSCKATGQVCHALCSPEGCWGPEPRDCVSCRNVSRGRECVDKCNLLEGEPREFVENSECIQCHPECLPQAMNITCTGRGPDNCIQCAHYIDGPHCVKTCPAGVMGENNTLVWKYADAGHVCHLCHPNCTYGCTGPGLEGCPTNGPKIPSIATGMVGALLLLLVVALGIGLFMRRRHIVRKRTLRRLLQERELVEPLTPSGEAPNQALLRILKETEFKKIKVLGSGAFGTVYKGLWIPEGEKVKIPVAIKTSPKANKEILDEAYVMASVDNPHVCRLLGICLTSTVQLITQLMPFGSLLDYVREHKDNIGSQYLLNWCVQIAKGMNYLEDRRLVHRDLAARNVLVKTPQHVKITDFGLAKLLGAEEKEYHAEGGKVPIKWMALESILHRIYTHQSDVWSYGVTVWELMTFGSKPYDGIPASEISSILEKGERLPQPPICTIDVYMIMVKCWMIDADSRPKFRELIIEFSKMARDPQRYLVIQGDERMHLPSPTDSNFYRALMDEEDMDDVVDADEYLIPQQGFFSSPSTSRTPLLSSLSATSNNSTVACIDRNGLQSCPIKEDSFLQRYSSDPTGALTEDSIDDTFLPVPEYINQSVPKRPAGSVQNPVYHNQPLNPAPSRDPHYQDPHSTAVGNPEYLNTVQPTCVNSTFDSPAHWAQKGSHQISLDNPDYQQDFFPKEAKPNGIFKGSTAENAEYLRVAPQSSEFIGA
EGFR wildtype (WT), sequence (P00533 25-1210): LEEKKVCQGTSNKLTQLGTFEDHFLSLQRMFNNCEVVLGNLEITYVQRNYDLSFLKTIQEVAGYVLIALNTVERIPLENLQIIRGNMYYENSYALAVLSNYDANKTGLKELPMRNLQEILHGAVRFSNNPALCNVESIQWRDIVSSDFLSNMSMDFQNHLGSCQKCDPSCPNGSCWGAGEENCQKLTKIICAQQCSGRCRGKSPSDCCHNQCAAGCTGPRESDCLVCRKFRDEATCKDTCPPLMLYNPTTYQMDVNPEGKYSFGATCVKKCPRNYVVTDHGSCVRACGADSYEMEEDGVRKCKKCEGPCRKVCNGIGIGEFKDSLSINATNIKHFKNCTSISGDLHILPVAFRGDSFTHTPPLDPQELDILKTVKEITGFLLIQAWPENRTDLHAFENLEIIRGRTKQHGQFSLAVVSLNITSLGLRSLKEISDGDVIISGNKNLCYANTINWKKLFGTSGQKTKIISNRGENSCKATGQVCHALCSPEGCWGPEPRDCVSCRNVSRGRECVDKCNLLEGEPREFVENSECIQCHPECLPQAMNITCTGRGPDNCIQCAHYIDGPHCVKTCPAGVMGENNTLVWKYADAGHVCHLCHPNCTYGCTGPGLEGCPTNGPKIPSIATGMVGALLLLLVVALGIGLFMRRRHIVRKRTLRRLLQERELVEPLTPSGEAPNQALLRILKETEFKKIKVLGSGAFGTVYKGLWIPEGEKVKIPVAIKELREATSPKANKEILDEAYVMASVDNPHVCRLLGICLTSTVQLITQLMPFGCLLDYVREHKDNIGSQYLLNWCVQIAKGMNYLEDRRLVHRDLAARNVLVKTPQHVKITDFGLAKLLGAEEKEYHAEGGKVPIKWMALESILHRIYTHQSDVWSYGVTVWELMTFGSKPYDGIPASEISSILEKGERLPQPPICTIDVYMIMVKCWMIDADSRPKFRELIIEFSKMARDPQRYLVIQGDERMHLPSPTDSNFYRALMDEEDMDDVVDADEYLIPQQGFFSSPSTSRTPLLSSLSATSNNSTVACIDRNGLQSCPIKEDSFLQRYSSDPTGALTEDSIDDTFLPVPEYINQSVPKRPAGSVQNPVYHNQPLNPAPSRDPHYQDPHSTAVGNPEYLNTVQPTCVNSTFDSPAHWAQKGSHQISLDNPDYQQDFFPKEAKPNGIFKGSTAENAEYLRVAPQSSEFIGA

SMILES | IC50 [1, 6] [nM] | IC50 [1, 7] [nM] | IC50 [2, 8] [nM] | IC50 [2, 9] [nM] | IC50 [3, 10] [nM] | IC50 [3, 11] [nM] | IC50 ([4]; IC50 WT (nM), 100 μM ATP) [nM] | IC50 [4, 12] [nM] | IC50 [5, 13] [nM] | IC50 [5, 14] [nM]
C[C@]1(O)CC[C@@H](Nc2cc(Nc3ccnc(-c4cnn(S(=O)(=O)C5CC5)c4)n3)ncc2C#Cc2cnn(CC(F)(F)F)c2)CC1 [Example 344, (1s, 4s)-4-((2-((2-(1-(Cyclopropylsulfonyl)-1H-pyrazol-4-yl)pyrimidin-4-yl)amino)-5-((1-(2,2,2-trifluoroethyl)-1H-pyrazol-4-yl)ethynyl)pyridin-4-yl)amino)-1-methylcyclohexan-1-ol] | 5 | 3.1 | 112 | 24.1 | 50.6 | 31.3 | > 10000 | 200 | 11.5 | 7.9
O=S(=O)(C1CC1)n1cc(-c2nccc(Nc3cc(N[C@H]4CC[C@@H](NCCF)CC4)c(C#Cc4cnn(CC(F)(F)F)c4)cn3)n2)cn1 [Example 345, N^2-(2-(1-(Cyclopropylsulfonyl)-1H-pyrazol-4-yl)pyrimidin-4-yl)-N^4-((1s,4s)-4-((2-fluoroethyl)amino)cyclohexyl)-5-((1-(2,2,2-trifluoroethyl)-1H-pyrazol-4-yl)ethynyl)pyridine-2,4-diamine] | 2.2 | 1.3 | 45.3 | 9.3 | 27.6 | 11 | 7830 | 138 | 2.7 | 1.5
CC(C)(O)[C@H]1CC[C@@H](Nc2cc(Nc3ccnc(-c4cnn(S(=O)(=O)C5CC5)c4)n3)ncc2C#Cc2cnn(CC(F)(F)F)c2)CC1 [Example 346, 2-((1s,4s)-4-((2-((2-(1-(Cyclopropylsulfonyl)-1H-pyrazol-4-yl)pyrimidin-4-yl)amino)-5-((1-(2,2,2-trifluoroethyl)-1H-pyrazol-4-yl)ethynyl)pyridin-4-yl)amino)cyclohexyl)propan-2-ol] | 5.8 | – | 249 | – | 45.3 | – | > 10000 | – | 17.4 | –
CC1(O)CC2(CCN(c3cc(Nc4ccnc(-c5cnn(S(=O)(=O)C6CC6)c5)n4)ncc3C#Cc3cnn(CC(F)(F)F)c3)CC2)C1 [Example 347, 7-(2-((2-(1-(Cyclopropylsulfonyl)-1H-pyrazol-4-yl)pyrimidin-4-yl)amino)-5-((1-(2,2,2-trifluoroethyl)-1H-pyrazol-4-yl)ethynyl)pyridin-4-yl)-2-methyl-7-azaspiro[3.5]nonan-2-ol] | 1.7 | 3.2 | 11.7 | 5.9 | 8.4 | 9.2 | 7140 | 74.3 | 6 | 5.4
CC1(CO)CCN(c2cc(Nc3ccnc(-c4cnn(S(=O)(=O)C5CC5)c4)n3)ncc2C#Cc2cnn(CC(F)(F)F)c2)CC1 [Example 348, (1-(2-((2-(1-(Cyclopropylsulfonyl)-1H-pyrazol-4-yl)pyrimidin-4-yl)amino)-5-((1-(2,2,2-trifluoroethyl)-1H-pyrazol-4-yl)ethynyl)pyridin-4-yl)-4-methylpiperidin-4-yl)methanol] | 0.8 | 1.4 | 14.3 | 1.1 | 4.9 | 4.7 | 651 | 14.1 | 2.1 | 4.2
CN(C)CCC1CCN(c2cc(Nc3ccnc(-c4cnn(S(=O)(=O)C5CC5)c4)n3)ncc2C#Cc2cnn(CC(F)(F)F)c2)CC1 [Example 349, 2-(1-(Cyclopropylsulfonyl)-1H-pyrazol-4-yl)-N-(4-(4-(2-(dimethylamino)ethyl)piperidin-1-yl)-5-((1-(2,2,2-trifluoroethyl)-1H-pyrazol-4-yl)ethynyl)pyridin-2-yl)pyrimidin-4-amine] | 1 | 0.5 | 9.4 | 1.4 | 4.8 | 2.6 | 844 | 9.1 | 1.5 | 1.5
CC1(C#Cc2cnc(Nc3ccnc(-c4cnn(S(=O)(=O)C5CC5)c4)n3)cc2N[C@H]2CC[C@@H](O)CC2)COC1 [Example 350, (1s,4s)-4-((2-((2-(1-(Cyclopropylsulfonyl)-1H-pyrazol-4-yl)pyrimidin-4-yl)amino)-5-((3-methyloxetan-3-yl)ethynyl)pyridin-4-yl)amino)cyclohexan-1-ol] | 13.9 | – | 954 | – | 81.4 | – | > 10000 | – | 2.8 | –
